pIC50: −log10 of the molar value.
Key:
Format in all cases: cell-based
MDA-MB-231 cells = assay: Cell proliferation experiment, MDA-MB-231 cells; conditions: Homo sapiens, Cell Titer-Glo, read-out: Cell antiproliferation data MDA-MB-231
Experimental: (§1) Reagents: RPMI-1640 medium, McCoy's 5A medium, IMDM medium, MEM medium, L-15 medium, fetal bovine serum, Penicillin-Streptomycin double antibody, trypsin, etc., 2-mercaptoethanol, NEAA, pyruvate, etc.
(§2) The test cells were cultured in conventional ways, and the cells should be passed for at least 2 generations before plating.
(§3) 25 μL of 1000 HT-29, N87, SKOV3, Colo-205 and MDA-MB-231 cells were inoculated in a 384-well plate with black wall and transparent bottom, 25 μL of different concentrations of compounds were added, and the cells were cultured overnight under condition of 37° C. and 5% CO2.
(§4) 25 μL of 1500 H82 and H69 cells were inoculated in a 384-well plate with black wall and transparent bottom, 25 μL of different concentrations of compounds were added, and the cells were cultured for 72 hours under condition of 37° C. and 5% CO2. The 384-well plate was equilibrated at room temperature, 25 μL of Cell Titer-Glo® reagent was added to each well, and the cells were lysed by shaking on a horizontal shaking shaker for 2 minutes, incubated at room temperature for 10 minutes to stabilize the luminescent signal, and then the chemiluminescent signal was detected using Envision.
(§5) All cells were subjected to IC50 test for corresponding samples.
(§6) The fluorescence intensity of each well was detected using the Alarm blue method, and EC50 was calculated.
(§7) IC50 was calculated according to the following formula:
(§8) [formula] • wherein, Min, Max and Slope represent the minimum, maximum and slope respectively.

HT-29 cells = assay: Cell proliferation experiment, HT-29 cells; conditions: Homo sapiens, Cell Titer-Glo, read-out: Cell antiproliferation data HT-29
Experimental: as §1, §2, §3, §4, §5, §6, §7, §8

SKOV3 cells = assay: Cell proliferation experiment, SKOV3 cells; conditions: Homo sapiens, SK-OV-3, SKOV3 cells, Cell Titer-Glo; read-out: Cell antiproliferation data SKOV3
Experimental: as §1, §2, §3, §4, §5, §6, §7, §8

H82 cells = assay: Cell proliferation experiment, H82 cells; conditions: Homo sapiens, NCI-H82, cultured for 72 hours, Cell Titer-Glo, read-out: Cell antiproliferation data H82
Experimental: as §1, §2, §4
(§9) All cells were subjected to IC50 test for corresponding samples. […]
as §7, §8

H69 cells = assay: Cell proliferation experiment, H69 cells; conditions: Homo sapiens, NCI-H69, 72 h, cultured for 72 hours, Cell Titer-Glo, read-out: Cell antiproliferation data H69
Experimental: as §1, §2, §4, §9, §7, §8

Colo-205 cells = assay: Cell proliferation experiment, Colo-205 cells; conditions: Homo sapiens, COLO 205, Colo-205 cells, Cell Titer-Glo; read-out: Cell antiproliferation data Colo-205
Experimental: as §1, §2, §3, §4, §5, §6, §7, §8

N87 cells = assay: Cell proliferation experiment, N87 cells; conditions: Cell Titer-Glo, read-out: Cell antiproliferation data N87
Experimental: as §1, §2, §3, §4, §5, §6, §7, §8

Compound	pIC50 (MDA-MB-231 cells)	pIC50 (HT-29 cells)	pIC50 (SKOV3 cells)	pIC50 (Colo-205 cells)	pIC50 (H82 cells)	pIC50 (H69 cells)	pIC50 (N87 cells)
CC(C)n1cnc2c(NCc3ccc(-c4ccccc4)cc3)nc(N3CCNCC3)nc21 [UB-010, N-([1,1′-biphenyl]-4-ylmethyl)-9-isopropyl-2-(piperazin-1-yl)-9H-purin-6-amine]	≥ 7.00	≥ 7.00	≥ 7.00	≥ 7.00	≥ 7.00	6.52 to 7.00	≥ 7.00
CC(C)n1cnc2c(NCc3ccc(-c4ccccc4)cc3)nc(N3CCCCC3)nc21 [UB-008, N-([1,1′-biphenyl]-4-ylmethyl)-9-isopropyl-2-(Piperidin-1-yl)-9H-purin-6-amine]	< 6.52	< 6.52	< 6.52	< 6.52	< 6.52	< 6.52	< 6.52
CC[C@H](CO)Nc1nc(NCc2ccc(-c3ccccc3)cc2)c2ncn(C(C)C)c2n1 [UB-007, (R)-2-((6-(([1,1′-biphenyl]-4-ylmethyl)amino)-9-isopropyl-9H-purin-2-yl)amino)butan-1-ol]	< 6.52	6.52 to 7.00	< 6.52	< 6.52	6.52 to 7.00	< 6.52	6.52 to 7.00

Second part, led by results:

pIC50 (MDA-MB-231 cells)	pIC50 (HT-29 cells)	pIC50 (SKOV3 cells)	pIC50 (Colo-205 cells)	Compound	pIC50 (H82 cells)	pIC50 (H69 cells)	pIC50 (N87 cells)
≥ 7.00	≥ 7.00	6.52 to 7.00	≥ 7.00	CC(C)n1cnc2c(NCc3ccc(-c4ccccc4)cc3)nc(N[C@H]3CCCNC3)nc21 [UB-015, (S)-N6-([1,1′-biphenyl]-4-ylmethyl)-9-isopropyl-N2-(Piperidin-3-yl)-9H-purin-2,6-diamine]	≥ 7.00	6.52 to 7.00	≥ 7.00
≥ 7.00	≥ 7.00	6.52 to 7.00	≥ 7.00	CC(C)n1cnc2c(NCc3ccc(-c4ccccc4)cc3)nc(N3CCC[C@@H](N)C3)nc21 [UB-013, (R)-N-([1,1′-biphenyl]-4-ylmethyl)-2-(3-aminopiperidin-1-yl)-9-isopropyl-9H-purin-6-amine]	≥ 7.00	6.52 to 7.00	≥ 7.00

— patent US20260152501A1, “CYCLIN MODULATOR” (EUBULUS BIOTHERAPEUTICS (HONG KONG) LIMITED, priority 2022, published 2026)
